From patent publication EP0762893B1, “TREATMENT OF PLASMA” (SUOMEN PUNAINEN RISTI VERIPALVELU, priority 1994, dated 1995) come the findings set out here.

In data set [1] the test system is fibrinogen. The data set is described as follows: Inactivation of clottable fibrinogen during MB photochemical treatment of 2 ml pooled plasma samples (thromboplastin time assay). Format: biochemical. To be noted: 1 µmol/l of MB, TL-M 115/33 fluorescent tubes for 1 h.
For data set [2], the system named is F VIII. The data set is described as follows: Inactivation of F VIII activity during MB photochemical treatment of 2 ml pooled plasma samples (chromogenic substrate assay). It counts as biochemical. To be noted: 1 µmol/l of MB, TL-M 115/33 fluorescent tubes for 1 h.
A short description of data set [3]: Disappearance of ascorbate and urate from plasma during MB photochemical treatment (HPLC). The conditions noted are these: compared with ascorbate.
Experimental: To study the effect of added ascorbate, we used a plasma pool with a low ascorbate level (35 µmol/l). […] Ascorbate was added to the plasma at different concentrations before MB that was used at a final concentration of 1 µmol/l. Plasma samples of 2 ml were illuminated in 2.5 ml cryotubes (Falcon) with TL-M 115/33 RS fluorescent tubes (Philips) for 1 h. A transparent cooling plate with fluid circulation was placed between the plasma samples and the fluorescent tubes to keep the temperature of the plasma below 22 °C. The irradiation power at the level of the plasma tubes was 1.9 mW/cm^2 at 595-695 nm (40 000 lux). After illumination, the samples were divided into portions of 0.5 ml and frozen.
To study the fate of ascorbate during MB treatment, we followed the concentration of ascorbate at different stages of the treatment and compared it to urate, another antioxidant considered important in plasma. Plasma was illuminated with the fluorescent tubes in 2 ml portions as in Example 1, and the illumination was interrupted at different periods. Urate was measured with the same HPLC method as ascorbate.

Turning to `CN(C)c1ccc2nc3ccc(=[N+](C)C)cc-3sc2c1` [MB, methylene blue], the “absorbing form of MB after dilution” value is recorded as “quantitatively restored”. Further, in data set [1], the “extent of inactivation of fibrinogen” value was “about 50%”. The “extent of inactivation of factor VIII” value in data set [2] is on record as ~40%.

Take `O=c1[nH]c(=O)c2[nH]c(=O)[nH]c2[nH]1` [Urate, urate]: the “disappearance of urate from plasma” value in data set [3] is “clearly more slowly than ascorbate”.
